{"source": "ChEMBL document CHEMBL4706768", "about": "“Discovery of Potent, Selective Triazolothiadiazole-Containing c-Met Inhibitors” (ACS Med Chem Lett, 2021)", "key": {"[1]": {"molecular_target": "Ephrin type-B receptor 4 (Homo sapiens) (UniProt P54760)", "sequence (P54760 whole entry)": "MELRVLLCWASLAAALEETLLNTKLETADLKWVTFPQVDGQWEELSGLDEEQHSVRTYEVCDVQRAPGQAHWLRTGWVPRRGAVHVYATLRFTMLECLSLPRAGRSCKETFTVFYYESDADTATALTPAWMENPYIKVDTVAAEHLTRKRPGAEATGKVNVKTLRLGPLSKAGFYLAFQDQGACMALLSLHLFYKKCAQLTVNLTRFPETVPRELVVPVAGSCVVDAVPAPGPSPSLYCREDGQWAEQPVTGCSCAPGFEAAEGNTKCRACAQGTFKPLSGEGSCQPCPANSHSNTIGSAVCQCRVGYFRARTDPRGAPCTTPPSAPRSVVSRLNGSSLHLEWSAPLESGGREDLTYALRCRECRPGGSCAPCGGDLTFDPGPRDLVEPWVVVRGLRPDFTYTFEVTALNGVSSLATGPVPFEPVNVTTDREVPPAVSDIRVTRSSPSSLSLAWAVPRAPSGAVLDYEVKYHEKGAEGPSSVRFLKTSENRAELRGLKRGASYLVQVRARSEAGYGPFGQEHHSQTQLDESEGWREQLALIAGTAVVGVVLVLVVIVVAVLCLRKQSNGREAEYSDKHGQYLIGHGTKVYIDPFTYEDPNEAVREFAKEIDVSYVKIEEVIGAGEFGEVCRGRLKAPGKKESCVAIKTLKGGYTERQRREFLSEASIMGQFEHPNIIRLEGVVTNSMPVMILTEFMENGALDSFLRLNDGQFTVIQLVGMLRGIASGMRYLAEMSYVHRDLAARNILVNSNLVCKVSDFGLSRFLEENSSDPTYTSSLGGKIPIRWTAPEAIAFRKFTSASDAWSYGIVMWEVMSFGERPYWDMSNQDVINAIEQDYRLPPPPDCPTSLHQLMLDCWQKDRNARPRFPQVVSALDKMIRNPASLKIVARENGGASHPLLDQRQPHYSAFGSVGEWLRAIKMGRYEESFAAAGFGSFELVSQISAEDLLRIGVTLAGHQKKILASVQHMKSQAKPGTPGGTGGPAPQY", "experiment": "Inhibition of recombinant human N-terminal GST-tagged EphB4 (561 to end residues) expressed in baculovirus infected Sf21 insect cells at 2 uM using poly (Glu,Tyr) (4:1) as substrate relative to control"}, "[2]": {"test_system": "RAF proto-oncogene serine/threonine-protein kinase (Homo sapiens), P04049 [Y340D,Y341D]", "experiment": "Inhibition of recombinant human N-terminal GST-tagged c-RAF Y340D/Y341D mutant (306 to 648 residues) expressed in Sf9 insect cells at 2 uM using MEK1(K97R) as substrate relative to control"}, "[3]": {"experiment": "Inhibition of GSK3 (unknown origin)", "set-up": "species or system Homo sapiens"}, "[4]": {"molecular_target": "Mitogen-activated protein kinase 8 (Homo sapiens) (UniProt P45983)", "experiment": "Inhibition of recombinant human full-length N-terminal His-tagged JNK1alpha1 ([…]) expressed in Sf21 insect cells at 2 uM using ATF2 (19 to 96 residues) as substrate relative to control"}, "[5]": {"molecular_target": "Tyrosine-protein kinase BTK (Homo sapiens) (UniProt Q06187)", "experiment": "Inhibition of recombinant N-terminal His6-tagged human full-length BTK expressed in Sf21 insect cells at 2 uM using Src peptide as substrate relative to control"}, "[6]": {"species": "Homo sapiens", "experiment": "Selectivity ratio of IC50 for inhibition of recombinant human N-terminal GST/His-tagged PDE3A (669 to 1141 residues) expressed in baculovirus infected Sf9 insect cells to IC50 for inhibition of c-MET in human SNU-5 cells"}, "[7]": {"molecular_target": "cGMP-inhibited 3',5'-cyclic phosphodiesterase 3A (Homo sapiens, UniProt Q14432)", "experiment": "Inhibition of recombinant human N-terminal GST/His-tagged PDE3A (669 to 1141 residues) expressed in baculovirus infected Sf9 insect cells using iFL-cAMP as substrate preincubated for 15 mins followed by substrate addition and measured after 40 mins by fluorescence assay"}, "[8]": {"molecular_target": "Insulin receptor-related protein (Homo sapiens) (UniProt P14616)", "experiment": "Inhibition of recombinant human N-terminal His6-tagged IRR (944 to 1266 residues) expressed in baculovirus infected Sf21 insect cells at 2 uM using MBP (13-104) as substrate relative to control"}, "[9]": {"molecular_target": "Dual specificity mitogen-activated protein kinase kinase 1 (Homo sapiens) (UniProt Q02750)", "experiment": "Inhibition of recombinant human N-terminal GST-tagged/C-terminal His6-tagged full-length MEK1 expressed in Escherichia coli at 2 uM using MBP as substrate relative to control"}, "[10]": {"molecular_target": "ALK tyrosine kinase receptor (Homo sapiens) (UniProt Q9UM73)", "experiment": "Inhibition of recombinant N-terminal His6-tagged human ALK (1058 to end residues) expressed in baculovirus infected Sf21 insect cells at 2 uM using IGF-1Rtide as substrate relative to control"}, "[11]": {"molecular_target": "Mitogen-activated protein kinase 11 (Homo sapiens) (UniProt Q15759)", "sequence (Q15759 whole entry)": "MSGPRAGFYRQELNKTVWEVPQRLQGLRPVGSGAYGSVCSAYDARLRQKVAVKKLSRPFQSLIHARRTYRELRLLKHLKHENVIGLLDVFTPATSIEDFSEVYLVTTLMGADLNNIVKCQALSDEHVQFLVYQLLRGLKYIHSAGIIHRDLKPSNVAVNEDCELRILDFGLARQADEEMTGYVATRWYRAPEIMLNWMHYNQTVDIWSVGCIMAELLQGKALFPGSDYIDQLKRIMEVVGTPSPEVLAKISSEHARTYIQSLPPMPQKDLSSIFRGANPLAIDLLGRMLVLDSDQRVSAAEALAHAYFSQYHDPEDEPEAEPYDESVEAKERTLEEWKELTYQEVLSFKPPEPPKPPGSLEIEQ", "experiment": "Inhibition of recombinant human N-terminal GST-tagged full-length p38beta2 expressed in Escherichia coli at 2 uM using MBP as substrate relative to control"}, "[12]": {"molecular_target": "Platelet-derived growth factor receptor alpha (Homo sapiens) (UniProt P16234)", "experiment": "Inhibition of recombinant human N-terminal His6-tagged PDGFRalpha (550 to end residues) expressed in baculovirus infected Sf21 insect cells at 2 uM using poly (Glu4-Tyr) (4:1) as substrate relative to control"}, "[13]": {"molecular_target": "Proto-oncogene tyrosine-protein kinase Src (Homo sapiens, UniProt P12931)", "sequence (P12931 2-536 limits assumed)": "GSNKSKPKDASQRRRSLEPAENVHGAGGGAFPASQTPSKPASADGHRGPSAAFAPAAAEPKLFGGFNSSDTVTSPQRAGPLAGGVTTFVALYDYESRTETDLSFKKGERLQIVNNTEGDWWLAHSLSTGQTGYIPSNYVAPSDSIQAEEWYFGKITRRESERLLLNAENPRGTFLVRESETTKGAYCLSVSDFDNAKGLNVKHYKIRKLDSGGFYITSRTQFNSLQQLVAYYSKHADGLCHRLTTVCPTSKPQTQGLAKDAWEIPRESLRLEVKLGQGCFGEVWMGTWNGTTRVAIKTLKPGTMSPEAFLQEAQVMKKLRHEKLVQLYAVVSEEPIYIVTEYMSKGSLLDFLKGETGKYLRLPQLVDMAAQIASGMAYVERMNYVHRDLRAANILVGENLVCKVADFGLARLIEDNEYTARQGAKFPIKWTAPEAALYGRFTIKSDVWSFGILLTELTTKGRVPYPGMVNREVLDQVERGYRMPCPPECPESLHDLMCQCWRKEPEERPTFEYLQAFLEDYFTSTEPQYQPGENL", "experiment": "Inhibition of SRC (unknown origin)"}, "[14]": {"experiment": "Inhibition of PI3K (unknown origin)", "set-up": "species or system Homo sapiens"}, "[15]": {"molecular_target": "Serine/threonine-protein kinase PAK 2 (Homo sapiens) (UniProt Q13177)", "experiment": "Inhibition of recombinant human N-terminal/C-terminal His6-tagged full-length PAK2 (3 to end residues) expressed in Escherichia coli at 2 uM using long S6 Kinase peptide as substrate relative to control"}, "[16]": {"molecular_target": "Proto-oncogene tyrosine-protein kinase receptor Ret (Homo sapiens) (UniProt P07949)", "experiment": "Inhibition of recombinant human N-terminal GST-tagged RET (658 to end residues) expressed in baculovirus infected Sf21 insect cells at 2 uM using IFG1Rtide as substrate relative to control"}, "[17]": {"molecular_target": "Tyrosine-protein kinase receptor UFO (Homo sapiens) (UniProt P30530)", "experiment": "Inhibition of recombinant N-terminal His6-tagged human AXL (473 to end residues) expressed in Sf21 insect cells at 2 uM using Axl-tide as substrate relative to control"}, "[18]": {"molecular_target": "Dual specificity mitogen-activated protein kinase kinase 7 (Homo sapiens) (UniProt O14733)", "experiment": "Inhibition of recombinant human N-terminal GST-tagged MKK7beta1 (2 to end residues) expressed in Escherichia coli at 2 uM using JNK1alpha1/SAPK1c as substrate relative to control"}, "[19]": {"molecular_target": "Serine/threonine-protein kinase 3 (Homo sapiens) (UniProt Q13188)", "experiment": "Inhibition of recombinant human N-terminal His6-tagged MST2 (2 to end residues) expressed in baculovirus infected Sf21 insect cells at 2 uM using MBP as substrate relative to control"}, "[20]": {"molecular_target": "Ribosomal protein S6 kinase alpha-2 (Homo sapiens) (UniProt Q15349)", "experiment": "Inhibition of recombinant human N-terminal full-length His6-tagged RSK3 ([…]) expressed in Sf21 insect cells at 2 uM using MAPKAP Kinase 2 as substrate relative to control"}, "[21]": {"molecular_target": "Vascular endothelial growth factor receptor 1 (Homo sapiens) (UniProt P17948)", "experiment": "Inhibition of recombinant human N-terminal GST-tagged FLT1 (783 to end residues) expressed in baculovirus infected Sf21 insect cells at 2 uM using KKKSPGEYVNIEFG as substrate relative to control"}, "[22]": {"molecular_target": "Tyrosine-protein kinase Fes/Fps (Homo sapiens) (UniProt P07332)", "experiment": "Inhibition of recombinant human N-terminal His6-tagged FES (561 to end residues) expressed in baculovirus infected Sf21 insect cells at 2 uM using poly (Glu,Tyr) (4:1) as substrate relative to control"}, "[23]": {"molecular_target": "Proto-oncogene tyrosine-protein kinase ROS (Homo sapiens) (UniProt P08922)", "sequence (P08922 whole entry)": "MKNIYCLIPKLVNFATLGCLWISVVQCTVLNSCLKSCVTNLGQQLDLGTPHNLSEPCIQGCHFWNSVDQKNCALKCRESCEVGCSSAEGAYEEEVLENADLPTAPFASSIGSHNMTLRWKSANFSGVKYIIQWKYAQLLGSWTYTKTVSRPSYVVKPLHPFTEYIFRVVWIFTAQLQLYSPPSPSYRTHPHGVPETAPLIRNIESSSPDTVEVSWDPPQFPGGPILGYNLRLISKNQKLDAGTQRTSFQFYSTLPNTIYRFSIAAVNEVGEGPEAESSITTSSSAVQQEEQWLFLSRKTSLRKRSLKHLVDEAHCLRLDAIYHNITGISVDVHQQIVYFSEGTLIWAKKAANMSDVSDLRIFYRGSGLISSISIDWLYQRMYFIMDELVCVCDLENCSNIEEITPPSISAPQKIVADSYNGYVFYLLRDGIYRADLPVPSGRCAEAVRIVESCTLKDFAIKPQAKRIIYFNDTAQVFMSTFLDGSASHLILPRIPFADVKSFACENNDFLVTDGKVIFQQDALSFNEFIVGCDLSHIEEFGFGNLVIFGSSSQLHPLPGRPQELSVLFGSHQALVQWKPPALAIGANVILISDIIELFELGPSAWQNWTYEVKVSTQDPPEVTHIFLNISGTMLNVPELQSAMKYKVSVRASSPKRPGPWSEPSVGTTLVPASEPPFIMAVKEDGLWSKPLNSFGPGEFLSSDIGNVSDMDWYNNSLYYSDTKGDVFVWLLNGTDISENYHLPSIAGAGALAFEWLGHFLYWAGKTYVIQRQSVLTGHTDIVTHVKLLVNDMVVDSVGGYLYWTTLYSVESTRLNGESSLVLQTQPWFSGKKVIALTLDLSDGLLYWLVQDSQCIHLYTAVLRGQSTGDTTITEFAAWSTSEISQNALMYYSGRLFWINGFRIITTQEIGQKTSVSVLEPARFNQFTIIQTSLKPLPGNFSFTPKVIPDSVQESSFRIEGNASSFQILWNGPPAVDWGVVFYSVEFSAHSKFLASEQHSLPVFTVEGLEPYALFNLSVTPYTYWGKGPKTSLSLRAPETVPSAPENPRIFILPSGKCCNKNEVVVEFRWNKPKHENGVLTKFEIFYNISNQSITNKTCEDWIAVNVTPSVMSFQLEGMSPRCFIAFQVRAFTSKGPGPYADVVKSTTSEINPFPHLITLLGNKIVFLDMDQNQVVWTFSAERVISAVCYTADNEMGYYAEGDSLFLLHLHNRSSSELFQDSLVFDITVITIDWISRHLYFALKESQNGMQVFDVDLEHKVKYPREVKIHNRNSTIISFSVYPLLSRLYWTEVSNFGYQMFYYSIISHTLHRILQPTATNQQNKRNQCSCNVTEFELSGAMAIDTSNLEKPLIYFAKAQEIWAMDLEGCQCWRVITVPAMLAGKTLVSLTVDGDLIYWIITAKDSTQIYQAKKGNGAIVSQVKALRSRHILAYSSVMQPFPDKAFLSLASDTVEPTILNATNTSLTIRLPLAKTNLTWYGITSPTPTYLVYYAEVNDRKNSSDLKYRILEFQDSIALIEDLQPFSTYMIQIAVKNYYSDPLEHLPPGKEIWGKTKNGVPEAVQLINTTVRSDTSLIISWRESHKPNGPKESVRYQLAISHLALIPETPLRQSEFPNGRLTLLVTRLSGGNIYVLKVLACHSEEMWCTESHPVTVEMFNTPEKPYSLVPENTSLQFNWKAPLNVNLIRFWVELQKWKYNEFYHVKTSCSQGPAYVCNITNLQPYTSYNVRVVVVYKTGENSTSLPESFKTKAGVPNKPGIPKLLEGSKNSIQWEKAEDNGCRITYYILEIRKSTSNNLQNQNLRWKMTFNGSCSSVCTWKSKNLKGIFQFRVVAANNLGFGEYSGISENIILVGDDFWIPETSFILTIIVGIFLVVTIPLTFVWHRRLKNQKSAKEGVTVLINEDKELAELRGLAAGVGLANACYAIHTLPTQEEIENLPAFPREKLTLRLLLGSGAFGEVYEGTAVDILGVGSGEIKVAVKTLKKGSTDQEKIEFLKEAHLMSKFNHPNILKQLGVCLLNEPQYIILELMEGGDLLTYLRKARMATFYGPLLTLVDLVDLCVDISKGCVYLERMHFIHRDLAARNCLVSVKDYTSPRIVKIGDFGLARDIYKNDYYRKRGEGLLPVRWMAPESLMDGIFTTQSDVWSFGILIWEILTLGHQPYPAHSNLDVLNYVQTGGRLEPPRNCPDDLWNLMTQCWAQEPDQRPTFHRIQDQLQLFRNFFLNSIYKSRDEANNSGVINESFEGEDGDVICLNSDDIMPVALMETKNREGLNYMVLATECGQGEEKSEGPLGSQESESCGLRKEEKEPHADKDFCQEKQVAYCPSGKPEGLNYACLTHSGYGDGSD", "experiment": "Inhibition of recombinant human N-terminal His6-tagged ROS (1883 to end residues) expressed in baculovirus infected Sf21 insect cells at 2 uM using KKKSPGEYVNIEFG as substrate relative to control"}, "[24]": {"molecular_target": "Angiopoietin-1 receptor (Homo sapiens) (UniProt Q02763)", "experiment": "Inhibition of recombinant human N-terminal His6-tagged TIE2 (771 to end residues) expressed in baculovirus infected Sf21 insect cells at 2 uM using poly (Glu4-Tyr) (4:1) as substrate relative to control"}, "[25]": {"molecular_target": "Tyrosine-protein kinase Blk (Homo sapiens) (UniProt P51451)", "sequence (P51451 2-505 limits assumed)": "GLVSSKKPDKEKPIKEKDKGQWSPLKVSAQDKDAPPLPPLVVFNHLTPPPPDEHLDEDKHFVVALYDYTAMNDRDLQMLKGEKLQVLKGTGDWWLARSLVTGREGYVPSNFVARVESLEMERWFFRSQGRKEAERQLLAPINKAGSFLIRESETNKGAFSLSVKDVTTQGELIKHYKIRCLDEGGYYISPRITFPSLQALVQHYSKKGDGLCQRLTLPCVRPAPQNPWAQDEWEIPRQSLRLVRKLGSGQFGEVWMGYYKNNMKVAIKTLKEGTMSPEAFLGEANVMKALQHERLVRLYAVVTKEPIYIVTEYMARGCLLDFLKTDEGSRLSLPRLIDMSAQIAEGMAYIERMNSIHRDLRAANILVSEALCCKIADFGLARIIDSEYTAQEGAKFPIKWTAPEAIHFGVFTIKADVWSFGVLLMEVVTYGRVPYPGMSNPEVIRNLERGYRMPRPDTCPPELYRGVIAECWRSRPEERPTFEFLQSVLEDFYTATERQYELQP", "experiment": "Inhibition of recombinant N-terminal His6-tagged human full-length BLK expressed in Sf21 insect cells at 2 uM using Poly (Glu4-Tyr) (4:1) as substrate relative to control"}, "[26]": {"molecular_target": "Inhibitor of nuclear factor kappa-B kinase subunit alpha (Homo sapiens) (UniProt O15111)", "experiment": "Inhibition of IKKa (unknown origin) at 2 uM relative to control"}}, "note": "pIC50, pKi: −log10 of the molar value.", "data": [{"smiles": "C[C@@H](c1ccc2ncccc2c1)c1nnc2sc(-c3cnn(C)c3)nn12", "values": [{"measurement": "inhibition", "setting": "[1]", "value": "< 50", "unit": "%"}, {"measurement": "inhibition", "setting": "[2]", "value": "< 50", "unit": "%"}, {"measurement": "pKi", "setting": "[3]", "value": "< 5.40"}, {"measurement": "inhibition", "setting": "[4]", "value": "< 50", "unit": "%"}, {"measurement": "inhibition", "setting": "[5]", "value": "< 50", "unit": "%"}, {"measurement": "Ratio IC50", "setting": "[6]", "value": 25}, {"measurement": "pIC50", "setting": "[7]", "value": 6.30}, {"measurement": "inhibition", "setting": "[8]", "value": "< 50", "unit": "%"}, {"measurement": "inhibition", "setting": "[9]", "value": "< 50", "unit": "%"}, {"measurement": "inhibition", "setting": "[10]", "value": "< 50", "unit": "%"}, {"measurement": "inhibition", "setting": "[11]", "value": "< 50", "unit": "%"}, {"measurement": "inhibition", "setting": "[12]", "value": "< 50", "unit": "%"}, {"measurement": "pKi", "setting": "[13]", "value": "< 5.40"}, {"measurement": "pKi", "setting": "[14]", "value": "< 5.40"}, {"measurement": "inhibition", "setting": "[15]", "value": "< 50", "unit": "%"}, {"measurement": "inhibition", "setting": "[16]", "value": "< 50", "unit": "%"}, {"measurement": "inhibition", "setting": "[17]", "value": "< 50", "unit": "%"}, {"measurement": "inhibition", "setting": "[18]", "value": "< 50", "unit": "%"}, {"measurement": "inhibition", "setting": "[19]", "value": "< 50", "unit": "%"}, {"measurement": "inhibition", "setting": "[20]", "value": "< 50", "unit": "%"}, {"measurement": "inhibition", "setting": "[21]", "value": "< 50", "unit": "%"}, {"measurement": "inhibition", "setting": "[22]", "value": "< 50", "unit": "%"}, {"measurement": "inhibition", "setting": "[23]", "value": "< 50", "unit": "%"}, {"measurement": "inhibition", "setting": "[24]", "value": "< 50", "unit": "%"}, {"measurement": "inhibition", "setting": "[25]", "value": "< 50", "unit": "%"}, {"measurement": "inhibition", "setting": "[26]", "value": "< 50", "unit": "%"}]}]}
